Experimental data from ChEMBL document CHEMBL3991601, “The target landscape of clinical kinase drugs” (Science, 2017).
Active and inactive are the calls of the source. For most assays here, no stated cut-off is given here; in the data, actives have a measured Kd and inactives only a lower limit.

Experiments:
[1] = molecular target: T1, DNA replication licensing factor MCM4 (Homo sapiens, UniProt P33991)
T1 sequence (P33991 whole entry): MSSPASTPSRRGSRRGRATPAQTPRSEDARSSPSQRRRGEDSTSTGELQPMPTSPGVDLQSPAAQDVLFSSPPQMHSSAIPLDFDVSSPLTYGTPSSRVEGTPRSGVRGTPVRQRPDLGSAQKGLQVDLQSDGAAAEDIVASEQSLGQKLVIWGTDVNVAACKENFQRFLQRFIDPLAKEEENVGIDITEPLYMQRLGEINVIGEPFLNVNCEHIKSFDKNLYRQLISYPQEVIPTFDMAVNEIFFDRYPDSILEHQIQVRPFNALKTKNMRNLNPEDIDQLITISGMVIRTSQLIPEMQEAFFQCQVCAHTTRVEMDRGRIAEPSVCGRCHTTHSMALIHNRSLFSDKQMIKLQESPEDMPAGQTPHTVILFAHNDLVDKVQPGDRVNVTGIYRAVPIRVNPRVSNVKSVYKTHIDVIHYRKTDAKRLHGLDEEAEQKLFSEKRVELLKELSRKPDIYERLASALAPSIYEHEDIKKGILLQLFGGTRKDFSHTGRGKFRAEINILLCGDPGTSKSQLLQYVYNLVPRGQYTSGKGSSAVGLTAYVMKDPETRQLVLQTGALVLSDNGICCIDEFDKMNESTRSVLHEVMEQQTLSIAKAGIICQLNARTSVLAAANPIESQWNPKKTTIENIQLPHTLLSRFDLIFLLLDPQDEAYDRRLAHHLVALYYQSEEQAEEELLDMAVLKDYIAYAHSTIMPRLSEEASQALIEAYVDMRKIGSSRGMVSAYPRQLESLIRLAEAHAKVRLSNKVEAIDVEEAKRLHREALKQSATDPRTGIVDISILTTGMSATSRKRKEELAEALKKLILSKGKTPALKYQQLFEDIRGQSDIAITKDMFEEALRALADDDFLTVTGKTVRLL

[2] = molecular target: Mitogen-activated protein kinase 9 (Homo sapiens, UniProt P45984)
Sequence of Mitogen-activated protein kinase 9 (P45984 whole entry): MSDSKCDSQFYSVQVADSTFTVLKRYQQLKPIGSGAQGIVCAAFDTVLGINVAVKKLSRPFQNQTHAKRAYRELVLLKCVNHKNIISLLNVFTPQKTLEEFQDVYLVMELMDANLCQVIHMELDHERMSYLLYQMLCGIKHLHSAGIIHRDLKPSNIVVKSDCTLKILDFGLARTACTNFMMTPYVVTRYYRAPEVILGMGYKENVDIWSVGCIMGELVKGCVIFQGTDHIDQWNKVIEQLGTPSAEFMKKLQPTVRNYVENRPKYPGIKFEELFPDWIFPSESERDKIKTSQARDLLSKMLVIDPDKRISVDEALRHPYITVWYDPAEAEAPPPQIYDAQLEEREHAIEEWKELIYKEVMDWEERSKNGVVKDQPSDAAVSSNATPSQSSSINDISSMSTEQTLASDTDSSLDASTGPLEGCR

Ephrin type-A receptor 2 = Ephrin type-A receptor 2 (Homo sapiens, UniProt P29317)
Sequence of Ephrin type-A receptor 2 (P29317 whole entry): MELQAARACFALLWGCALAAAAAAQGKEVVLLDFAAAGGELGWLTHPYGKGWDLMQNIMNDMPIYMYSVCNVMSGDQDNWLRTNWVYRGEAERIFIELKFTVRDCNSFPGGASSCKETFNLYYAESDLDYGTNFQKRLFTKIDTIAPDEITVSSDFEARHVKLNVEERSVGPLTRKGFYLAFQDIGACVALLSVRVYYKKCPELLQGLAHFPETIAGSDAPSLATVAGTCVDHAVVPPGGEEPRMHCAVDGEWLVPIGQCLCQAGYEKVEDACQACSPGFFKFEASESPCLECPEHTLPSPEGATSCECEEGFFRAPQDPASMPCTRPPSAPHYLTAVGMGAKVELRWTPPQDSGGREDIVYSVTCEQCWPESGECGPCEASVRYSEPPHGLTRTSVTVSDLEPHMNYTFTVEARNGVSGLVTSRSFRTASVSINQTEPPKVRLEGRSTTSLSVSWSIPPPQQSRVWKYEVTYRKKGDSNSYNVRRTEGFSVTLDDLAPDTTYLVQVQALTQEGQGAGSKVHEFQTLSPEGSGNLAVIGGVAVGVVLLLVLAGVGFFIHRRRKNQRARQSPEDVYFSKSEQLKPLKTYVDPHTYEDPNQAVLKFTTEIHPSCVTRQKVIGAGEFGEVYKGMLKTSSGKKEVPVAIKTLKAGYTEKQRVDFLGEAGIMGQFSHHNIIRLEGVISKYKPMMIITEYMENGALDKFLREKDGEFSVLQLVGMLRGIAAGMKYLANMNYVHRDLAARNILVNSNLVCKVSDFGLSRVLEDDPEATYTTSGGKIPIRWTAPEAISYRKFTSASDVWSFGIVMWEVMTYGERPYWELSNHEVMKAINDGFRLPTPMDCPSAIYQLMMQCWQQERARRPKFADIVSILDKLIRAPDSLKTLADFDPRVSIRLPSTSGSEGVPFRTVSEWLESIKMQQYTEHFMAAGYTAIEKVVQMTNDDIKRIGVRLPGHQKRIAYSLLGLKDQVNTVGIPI

[3] = molecular target: Tyrosine-protein kinase Fer (Homo sapiens, UniProt P16591)
Sequence of Tyrosine-protein kinase Fer (P16591 whole entry): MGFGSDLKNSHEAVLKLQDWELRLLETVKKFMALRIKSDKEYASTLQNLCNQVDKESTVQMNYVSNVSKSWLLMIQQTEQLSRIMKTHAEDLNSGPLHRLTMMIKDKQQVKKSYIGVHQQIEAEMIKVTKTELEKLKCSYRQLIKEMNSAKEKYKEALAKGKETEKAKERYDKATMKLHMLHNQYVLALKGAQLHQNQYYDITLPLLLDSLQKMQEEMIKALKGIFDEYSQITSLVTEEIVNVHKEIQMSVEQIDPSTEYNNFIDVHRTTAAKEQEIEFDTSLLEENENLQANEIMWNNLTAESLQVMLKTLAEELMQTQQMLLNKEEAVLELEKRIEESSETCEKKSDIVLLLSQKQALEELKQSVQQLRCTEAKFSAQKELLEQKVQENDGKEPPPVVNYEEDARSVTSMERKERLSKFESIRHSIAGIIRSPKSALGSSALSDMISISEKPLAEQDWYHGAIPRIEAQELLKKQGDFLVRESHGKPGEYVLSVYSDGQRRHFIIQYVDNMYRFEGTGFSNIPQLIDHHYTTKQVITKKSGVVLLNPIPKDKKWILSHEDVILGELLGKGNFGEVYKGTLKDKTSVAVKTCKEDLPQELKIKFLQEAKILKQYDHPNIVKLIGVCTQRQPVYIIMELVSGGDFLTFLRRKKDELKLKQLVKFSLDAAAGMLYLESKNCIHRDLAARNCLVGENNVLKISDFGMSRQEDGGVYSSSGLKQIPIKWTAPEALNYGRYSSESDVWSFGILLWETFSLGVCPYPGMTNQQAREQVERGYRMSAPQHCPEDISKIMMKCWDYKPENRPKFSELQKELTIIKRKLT

[4] = molecular target: Adenylate kinase 2, mitochondrial (Homo sapiens, UniProt P54819)
[5] = molecular target: T2, Mitogen-activated protein kinase kinase kinase 6 (Homo sapiens, UniProt O95382)
T2 sequence (O95382 whole entry): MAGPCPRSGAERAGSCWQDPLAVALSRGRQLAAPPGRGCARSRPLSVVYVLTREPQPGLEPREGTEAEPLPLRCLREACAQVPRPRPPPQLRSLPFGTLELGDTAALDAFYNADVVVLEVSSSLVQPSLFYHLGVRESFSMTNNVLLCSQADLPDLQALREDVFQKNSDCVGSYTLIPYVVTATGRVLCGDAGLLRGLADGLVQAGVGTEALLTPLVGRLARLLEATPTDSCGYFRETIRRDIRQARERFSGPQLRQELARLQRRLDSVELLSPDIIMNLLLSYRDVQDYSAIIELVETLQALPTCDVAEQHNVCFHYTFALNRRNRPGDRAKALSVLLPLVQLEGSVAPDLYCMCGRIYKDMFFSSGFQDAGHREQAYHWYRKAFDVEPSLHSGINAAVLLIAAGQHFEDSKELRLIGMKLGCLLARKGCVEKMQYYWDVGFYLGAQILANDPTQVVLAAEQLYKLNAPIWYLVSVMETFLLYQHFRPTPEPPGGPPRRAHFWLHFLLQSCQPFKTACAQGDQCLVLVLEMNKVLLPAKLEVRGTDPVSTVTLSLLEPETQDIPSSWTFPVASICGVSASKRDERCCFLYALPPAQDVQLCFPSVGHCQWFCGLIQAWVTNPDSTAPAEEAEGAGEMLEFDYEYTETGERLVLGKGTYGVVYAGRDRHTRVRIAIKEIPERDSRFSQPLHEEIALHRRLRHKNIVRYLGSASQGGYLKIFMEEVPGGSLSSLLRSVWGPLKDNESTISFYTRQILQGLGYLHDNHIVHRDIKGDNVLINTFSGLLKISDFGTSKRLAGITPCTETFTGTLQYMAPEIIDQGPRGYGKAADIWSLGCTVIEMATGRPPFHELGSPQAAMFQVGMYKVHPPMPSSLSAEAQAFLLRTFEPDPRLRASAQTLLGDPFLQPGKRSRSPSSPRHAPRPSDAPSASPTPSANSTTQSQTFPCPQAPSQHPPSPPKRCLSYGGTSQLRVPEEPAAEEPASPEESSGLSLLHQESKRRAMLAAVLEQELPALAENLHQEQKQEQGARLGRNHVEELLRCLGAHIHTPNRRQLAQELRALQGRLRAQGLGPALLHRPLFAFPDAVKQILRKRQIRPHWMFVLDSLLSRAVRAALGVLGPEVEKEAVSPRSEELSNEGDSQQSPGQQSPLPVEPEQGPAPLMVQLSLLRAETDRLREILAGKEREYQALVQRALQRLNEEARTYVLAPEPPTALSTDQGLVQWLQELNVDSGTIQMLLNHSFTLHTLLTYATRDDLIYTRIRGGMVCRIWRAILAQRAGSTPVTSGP

[6] = molecular target: Ribosomal protein S6 kinase alpha-4 (Homo sapiens, UniProt O75676)
Sequence of Ribosomal protein S6 kinase alpha-4 (O75676 whole entry): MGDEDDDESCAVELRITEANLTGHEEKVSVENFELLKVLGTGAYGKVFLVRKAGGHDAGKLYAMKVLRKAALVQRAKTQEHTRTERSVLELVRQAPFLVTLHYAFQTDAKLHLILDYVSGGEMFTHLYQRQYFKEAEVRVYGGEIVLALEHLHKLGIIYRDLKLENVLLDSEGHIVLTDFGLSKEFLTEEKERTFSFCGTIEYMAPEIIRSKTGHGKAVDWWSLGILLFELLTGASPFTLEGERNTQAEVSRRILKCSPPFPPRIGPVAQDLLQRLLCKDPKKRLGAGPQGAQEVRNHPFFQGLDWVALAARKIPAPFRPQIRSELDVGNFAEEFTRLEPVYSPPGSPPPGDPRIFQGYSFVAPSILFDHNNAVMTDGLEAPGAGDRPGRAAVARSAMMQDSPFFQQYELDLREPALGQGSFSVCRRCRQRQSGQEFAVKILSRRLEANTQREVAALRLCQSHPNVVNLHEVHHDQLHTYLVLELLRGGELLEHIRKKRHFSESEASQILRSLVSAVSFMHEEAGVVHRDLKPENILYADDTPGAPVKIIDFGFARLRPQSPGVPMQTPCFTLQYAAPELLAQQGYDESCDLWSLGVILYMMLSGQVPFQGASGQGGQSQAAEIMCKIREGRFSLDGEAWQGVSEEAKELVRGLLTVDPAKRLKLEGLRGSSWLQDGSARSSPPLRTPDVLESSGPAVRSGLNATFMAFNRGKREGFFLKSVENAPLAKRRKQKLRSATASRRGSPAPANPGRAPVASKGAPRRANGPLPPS

[7] = molecular target: Tyrosine-protein kinase Lyn (Homo sapiens, UniProt P07948)
Sequence of Tyrosine-protein kinase Lyn (P07948 whole entry): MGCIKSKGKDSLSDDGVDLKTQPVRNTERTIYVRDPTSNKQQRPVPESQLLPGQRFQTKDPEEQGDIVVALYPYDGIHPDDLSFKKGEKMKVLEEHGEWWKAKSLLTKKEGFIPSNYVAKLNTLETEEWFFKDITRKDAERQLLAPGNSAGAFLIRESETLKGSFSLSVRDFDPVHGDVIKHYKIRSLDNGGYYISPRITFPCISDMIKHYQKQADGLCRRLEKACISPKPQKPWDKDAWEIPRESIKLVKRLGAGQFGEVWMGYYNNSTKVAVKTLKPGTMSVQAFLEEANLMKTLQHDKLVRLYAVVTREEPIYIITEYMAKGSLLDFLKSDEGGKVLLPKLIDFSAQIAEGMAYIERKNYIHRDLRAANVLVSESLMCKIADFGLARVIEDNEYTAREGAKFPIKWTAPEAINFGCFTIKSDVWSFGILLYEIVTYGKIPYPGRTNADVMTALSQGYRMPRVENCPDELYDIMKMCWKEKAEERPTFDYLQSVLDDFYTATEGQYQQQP

Row | SMILES | Kd [1] | Kd [2] | Kd (Ephrin type-A receptor 2) | Kd [3] | Kd [4] | Kd [5] | Kd [6] | Kd [7]
1 | C#Cc1cccc(Nc2ncnc3cc(OC)c(OCCCCCCC(=O)NO)cc23)c1 [CUDC-101] | > 30 µM (inactive) | > 30 µM (inactive) | > 30 µM (inactive) | > 30 µM (inactive) | 1.04 µM (active) | > 30 µM (inactive) | > 30 µM (inactive) | > 30 µM (inactive)
2 | NC1(c2ccc(-c3nc4ccn5c(=O)[nH]nc5c4cc3-c3ccccc3)cc2)CCC1 [MK-2206] | > 30 µM (inactive) | > 30 µM (inactive) | > 30 µM (inactive) | > 30 µM (inactive) | > 30 µM (inactive) | > 30 µM (inactive) | > 30 µM (inactive) | > 30 µM (inactive)
3 | Cc1nc2cc(-c3nn(C(C)C)c4ncnc(N)c34)ccc2o1 | > 30 µM (inactive) | > 30 µM (inactive) | > 30 µM (inactive) | > 30 µM (inactive) | > 30 µM (inactive) | > 30 µM (inactive) | > 30 µM (inactive) | > 30 µM (inactive)
4 | O=C1NC(=O)[C@@H](c2cn3c4c(cccc24)CCC3)[C@@H]1c1c[nH]c2ccccc12 [TIVANTINIB] | > 30 µM (inactive) | > 30 µM (inactive) | > 30 µM (inactive) | > 30 µM (inactive) | > 30 µM (inactive) | > 30 µM (inactive) | > 30 µM (inactive) | > 30 µM (inactive)
5 | CO[C@H]1C[C@@H]2CC[C@@H](C)[C@@](O)(O2)C(=O)C(=O)N2CCCC[C@H]2C(=O)O[C@H]([C@H](C)C[C@@H]2CC[C@@H](OP(C)(C)=O)[C@H](OC)C2)CC(=O)[C@H](C)/C=C(\C)[C@@H](O)[C@@H](OC)C(=O)[C@H](C)C[C@H](C)/C=C/C=C/C=C/1C [RIDAFOROLIMUS] | > 30 µM (inactive) | > 30 µM (inactive) | > 30 µM (inactive) | > 30 µM (inactive) | > 30 µM (inactive) | > 30 µM (inactive) | > 30 µM (inactive) | > 30 µM (inactive)
6 | COCC(=O)NC/C=C/c1ccc2ncnc(Nc3ccc(Oc4ccc(C)nc4)c(C)c3)c2c1 [CP-724714] | > 30 µM (inactive) | > 30 µM (inactive) | > 30 µM (inactive) | > 30 µM (inactive) | > 30 µM (inactive) | > 30 µM (inactive) | > 30 µM (inactive) | > 30 µM (inactive)
7 | Cc1nc(NC(=O)N2CCC[C@H]2C(N)=O)sc1-c1ccnc(C(C)(C)C(F)(F)F)c1 [ALPELISIB] | > 30 µM (inactive) | > 30 µM (inactive) | > 30 µM (inactive) | > 30 µM (inactive) | > 30 µM (inactive) | > 30 µM (inactive) | > 30 µM (inactive) | > 30 µM (inactive)
8 | CNC(=O)c1nn(C)c2c1C(C)(C)Cc1cnc(Nc3ccc(N4CCN(C)CC4)cc3)nc1-2 [MILCICLIB] | > 30 µM (inactive) | > 30 µM (inactive) | 0.661 µM (active) | > 30 µM (inactive) | > 30 µM (inactive) | > 30 µM (inactive) | > 30 µM (inactive) | 3.54 µM (active)
9 | CCCCCCCCCCCCCCCCCCOP(=O)([O-])OC1CC[N+](C)(C)CC1 [PERIFOSINE] | > 30 µM (inactive) | > 30 µM (inactive) | > 30 µM (inactive) | > 30 µM (inactive) | > 30 µM (inactive) | > 30 µM (inactive) | > 30 µM (inactive) | > 30 µM (inactive)
10 | COc1ncc(-c2ccc3nccc(-c4ccnnc4)c3c2)cc1NS(=O)(=O)c1ccc(F)cc1F [OMIPALISIB] | > 30 µM (inactive) | > 30 µM (inactive) | > 30 µM (inactive) | > 30 µM (inactive) | > 30 µM (inactive) | > 30 µM (inactive) | > 30 µM (inactive) | > 30 µM (inactive)
11 | C[C@H]1CNCCCN1S(=O)(=O)c1cccc2cncc(F)c12 | > 30 µM (inactive) | > 30 µM (inactive) | > 30 µM (inactive) | > 30 µM (inactive) | > 30 µM (inactive) | > 30 µM (inactive) | > 30 µM (inactive) | > 30 µM (inactive)
12 | Cc1cnc(NC(=O)Nc2cc(Br)c(C)cc2OC[C@@H]2CNCCO2)cn1 [RABUSERTIB] | > 30 µM (inactive) | > 30 µM (inactive) | > 30 µM (inactive) | > 30 µM (inactive) | > 30 µM (inactive) | > 30 µM (inactive) | > 30 µM (inactive) | > 30 µM (inactive)
13 | C[C@@H](Oc1cc(C(=O)Nc2ccc(C(=O)N3CCN(C)CC3)cc2)nnc1N)c1c(Cl)ccc(F)c1Cl | > 30 µM (inactive) | > 30 µM (inactive) | > 30 µM (inactive) | > 30 µM (inactive) | > 30 µM (inactive) | > 30 µM (inactive) | > 30 µM (inactive) | > 30 µM (inactive)
14 | Cc1cccc(-c2nn3c(c2-c2ccnc4ccc(C(N)=O)cc24)CCC3)n1 [GALUNISERTIB] | > 30 µM (inactive) | > 30 µM (inactive) | > 30 µM (inactive) | > 30 µM (inactive) | > 30 µM (inactive) | > 30 µM (inactive) | > 30 µM (inactive) | > 30 µM (inactive)
15 | O=C(Nc1nc2cccc(-c3ccc(CN4CCS(=O)(=O)CC4)cc3)n2n1)C1CC1 [FILGOTINIB] | > 30 µM (inactive) | > 30 µM (inactive) | > 30 µM (inactive) | > 30 µM (inactive) | > 30 µM (inactive) | > 30 µM (inactive) | > 30 µM (inactive) | > 30 µM (inactive)
16 | COc1cc([C@@H]2c3cc4c(cc3[C@H](O)[C@H]3COC(=O)[C@@H]23)OCO4)cc(OC)c1OC [AXL-1717] | > 30 µM (inactive) | > 30 µM (inactive) | > 30 µM (inactive) | > 30 µM (inactive) | > 30 µM (inactive) | > 30 µM (inactive) | > 30 µM (inactive) | > 30 µM (inactive)
17 | Cc1csc(-c2nnc(Nc3ccc(Oc4ncccc4-c4ccnc(N)n4)cc3)c3ccccc23)c1 [AMG-900] | > 30 µM (inactive) | > 30 µM (inactive) | > 30 µM (inactive) | > 30 µM (inactive) | > 30 µM (inactive) | > 30 µM (inactive) | 2.07 µM (active) | > 30 µM (inactive)
18 | COCc1c(-c2ccc(NC(=O)Nc3cc(C(F)(F)F)ccc3F)c(F)c2)c2c(N)ncnn2c1CN1CCOCC1 | > 30 µM (inactive) | 1.51 µM (active) | > 30 µM (inactive) | > 30 µM (inactive) | > 30 µM (inactive) | > 30 µM (inactive) | > 30 µM (inactive) | > 30 µM (inactive)
